The values below come from patent US20150253327A1, “DIAGNOSIS AND TREATMENT OF ASPIRIN-EXACERBATED RESPIRATORY DISEASE (AERD)” (BRIGHAM AND WOMEN'S HOSPITAL, INC., priority 2012, published 2015).

For data set [1] the following is noted: extracellular milieu (ref 43); cited from earlier work.
Another data set deals with human platelets. The conditions noted are these: exogenous cysLTs; inventors' previous work (ref 49); cited from earlier work.
In a further data set the test system is mice. The settings on record: pathway depends on platelet associated P2Y12 receptors (ref 49); cited from earlier work.
Data set [2] concerns fMLP-stimulated granulocytes. Nature of the data set: Suppression of fMLP-induced LTB4 generation by granulocytes from subjects with AERD. The data set is classed as cell-based, human. The settings on record: pretreatment of granulocytes from subjects with AERD; FIG. 12B-12C. An excerpt:
FIG. 12A depicts a graph of percentages of platelet-adherent neutrophils (determined by CD61^+ expression) in whole blood from eight subjects with AERD plotted against quantity of LTB4 generated by fMLP-stimulated granulocytes from the same individuals. Percent suppression of fMLP-induced LTB4 by pretreatment with (FIG. 12B) PGE2 or (FIG. 12C) the EP2 receptor-specific agonist was plotted against percentages of platelet-adherent neutrophils in the peripheral blood of each subject. Effect size, determined with Pearson correlation coefficient, is denoted as an r value.
Platelet-rich plasma was removed from whole peripheral blood by centrifugation, washed, and resuspended at a concentration of 1×10^9 platelets/mL. […] Granulocytes were counted and a portion was stripped of adherent platelets by incubation with 0.05% trypsinethylenediaminetetraacetic acid for 15 minutes at 37° C.^17 Removal of adherent platelets was confirmed by cytofluorographic analysis of samples of the granulocytes before and after trypsinization. […]
The percentage of platelet-adherent neutrophils (as determined by CD61+ expression) in the whole blood of subjects with AERD was positively correlated with the amount of LTB4 generated by fMPL-stimulation of granulocytes from the same subjects (FIG. 12A). […]

The structures appear in SMILES notation.

In the case of `CCCCC/C=C\C\C=C/C=C/C=C/[C@@H]1O[C@H]1CCCC(=O)O` [LTA4, leukotriene (LT)A4], the extracellular half-life result in data set [1] is listed as “less than 5 seconds”. Turning to `CCCCC/C=C\C\C=C/C=C/C=C/[C@@H](SC[C@H](N)C(=O)O)[C@@H](O)CCCC(=O)O` [LTE4], the “adherence of platelets to granulocytes” value with human platelets is reported as “do not directly cause human platelets to adhere to granulocytes”. Also, in the data set with mice, the pulmonary eosinophilia result is on record as “markedly potentiates pulmonary eosinophilia”. Regarding `CCCCC[C@H](O)/C=C/[C@H]1[C@H](O)CC(=O)[C@@H]1C/C=C\CCCC(=O)O` [PGE2], in data set [2], the “suppression of leukotriene production (fMLP-induced LTB4)” value is reported as “able to suppress leukotriene production”.
